Some test systems named below: A498 renal; BT-549 breast; DU-145 prostate; EKVX NSCLC; HOP-62 NSCLC; HS 578T breast; KM12 colon; TK-10 renal; UACC-257 melanoma; UO-31 renal.
Experiment in all cases: DTP human tumour cell line panel, 48 h

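Five compound concentrations were applied to cells in 96-well plates for 48 hours; endpoints were derived by simple linear interpolation of the resulting dose-response curve. Definition used: TGI = concentration required for complete inhibition of growth.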 Where a SMILES comes first, the peptide text is derived from it.

Results on 13 compounds are retold here after PubChem BioAssay (NCI).

For orientation: TGI means the concentration at which net growth stops. Consider `CCN(CC)CCOCCOCC1(c2ccc(Cl)c(Cl)c2)CCCCC1`, for which the TGI in the test on A498 renal worked out at 27.6 µM; with BT-549 breast, 26 µM; with DU-145 prostate, 22.1 µM; in the test on EKVX NSCLC it was 23 µM; in the test on HOP-62 NSCLC, 22 µM; in the test with HS 578T breast, 13.8 µM. The TGI in the test with KM12 colon was found to be 17.3 µM; in the test on TK-10 renal it was 21.7 µM; in the test with UACC-257 melanoma, 9.57 µM; with UO-31 renal, 12.9 µM.

In the case of `Cc1ccc(F)c2[nH]c(-c3ccccc3)cc(=O)c12`, the TGI in the test with A498 renal, with BT-549 breast, in the test on DU-145 prostate, with EKVX NSCLC, with HOP-62 NSCLC and in the test with HS 578T breast was over 100 µM throughout. The TGI with KM12 colon was over 100 µM; in the test on TK-10 renal, over 100 µM; in the test on UACC-257 melanoma it was over 100 µM; in the test with UO-31 renal it was over 50.1 µM.

In the case of `Nc1nncc2n[nH]nc12`, the TGI with A498 renal, with BT-549 breast, with DU-145 prostate, in the test with EKVX NSCLC, with HOP-62 NSCLC and in the test with HS 578T breast was over 100 µM in each case. Also, the TGI with KM12 colon, in the test on TK-10 renal, with UACC-257 melanoma and in the test with UO-31 renal was over 100 µM each time.

Regarding `COc1c(O)cc2c(c1O)C(=O)C(Cc1ccc(O)cc1)CO2` (stereo not given), the total growth inhibition concentration (TGI) with A498 renal, in the test with BT-549 breast, in the test with DU-145 prostate, in the test with EKVX NSCLC, with HOP-62 NSCLC and in the test on HS 578T breast was over 100 µM throughout. Further, the TGI in the test on KM12 colon, in the test with TK-10 renal, in the test on UACC-257 melanoma and in the test on UO-31 renal was over 100 µM throughout.

With `COc1ccc2[nH]c3c(c2c1)CCc1c(OC)cccc1-3`, the TGI with A498 renal, in the test with BT-549 breast, with DU-145 prostate, in the test with EKVX NSCLC, in the test with HOP-62 NSCLC and in the test on HS 578T breast was over 100 µM each time. Moreover, the total growth inhibition concentration (TGI) with KM12 colon, in the test with TK-10 renal, in the test on UACC-257 melanoma and in the test with UO-31 renal was over 100 µM each time.

In the case of `Fc1ccccc1-c1cc(=S)c2cc3c(cc2[nH]1)OCO3`, the TGI in the test with A498 renal, with BT-549 breast, in the test on DU-145 prostate, with EKVX NSCLC, with HOP-62 NSCLC and in the test on HS 578T breast was over 100 µM in each case. For the same compound, the TGI in the test with KM12 colon, with TK-10 renal, in the test on UACC-257 melanoma and in the test with UO-31 renal was over 100 µM each time.

With `COP(=O)(/C=C/C(NC(=O)C(Cl)(Cl)Cl)c1ccccc1)OC` (stereo not given), the TGI in the test with A498 renal, in the test with BT-549 breast, in the test on DU-145 prostate, with EKVX NSCLC, in the test on HOP-62 NSCLC and in the test on HS 578T breast was over 100 µM throughout. Besides, the TGI with KM12 colon, with TK-10 renal, with UACC-257 melanoma and with UO-31 renal was over 100 µM throughout.

As to `O=C1C=CC(=O)c2c(O)c(NCCN3CCOCC3)c(Cl)c(O)c21`, the TGI in the test with A498 renal was over 10 µM; with BT-549 breast it was 3.98 µM; in the test with DU-145 prostate it was 3.12 µM; in the test with EKVX NSCLC, over 10 µM; in the test with HOP-62 NSCLC, 3.72 µM; with HS 578T breast it was 6.54 µM. Moreover, the TGI in the test on KM12 colon is over 10 µM; with TK-10 renal it was over 10 µM; in the test on UACC-257 melanoma, 4.56 µM; in the test on UO-31 renal, 3.96 µM.

Consider `CC(=O)NC(CS)C(=O)NC(CO)C(=O)NC(CO)C(=O)NC(Cc1c[nH]c2ccccc12)C(=O)N1CCCC1C(=O)NC(CO)C(=O)NC(Cc1c[nH]c2ccccc12)C(=O)NC(Cc1c[nH]cn1)C(=O)NC(CO)C(=O)NC(Cc1c[nH]c2ccccc12)C(=O)NCC(=O)NCC(=O)NC(C)C(=O)NC(CCC(N)=O)C(=O)NC(CCCCN)C(=O)NC(C)C(=O)NC(CCCNC(=N)N)C(=O)NC(CCCCN)C(N)=O` (stereo not given) (Ac-CSSWPSWHSWGGAQKARK-NH2; configuration not given here), for which the TGI in the test with A498 renal was over 50 µM; with BT-549 breast, 41 µM; in the test on DU-145 prostate, over 50 µM; with EKVX NSCLC it was over 50 µM; in the test on HOP-62 NSCLC, over 50 µM; in the test on HS 578T breast, over 50 µM. In addition, the TGI was 32.1 µM in the test with KM12 colon, over 50 µM with TK-10 renal, 19.6 µM in the test on UACC-257 melanoma and over 50 µM with UO-31 renal.

Turning to `COc1ccc(CC2Cc3ccccc3CC(=O)N2)cc1OC` (stereo not given), the TGI with A498 renal, in the test with BT-549 breast, in the test on DU-145 prostate, in the test on EKVX NSCLC, with HOP-62 NSCLC and in the test with HS 578T breast was over 100 µM in each case. For the same compound, the TGI in the test with KM12 colon, in the test with TK-10 renal, in the test on UACC-257 melanoma and in the test on UO-31 renal was over 100 µM throughout.

For `CC12CP(=O)(O)CC1C2(Cl)Cl` (stereo not given), the TGI in the test with A498 renal, with BT-549 breast, in the test with DU-145 prostate, in the test on EKVX NSCLC, in the test with HOP-62 NSCLC and with HS 578T breast was over 100 µM each time. Also, the TGI with KM12 colon, in the test on TK-10 renal, in the test on UACC-257 melanoma and in the test with UO-31 renal was over 100 µM in each case.

In the case of `Nc1ccc2nc3n(c2c1)C(c1c(F)cccc1F)SC3` (stereo not given), the TGI in the test with A498 renal, with BT-549 breast, in the test with DU-145 prostate, in the test on EKVX NSCLC, in the test on HOP-62 NSCLC and in the test with HS 578T breast was over 100 µM in each case. In addition, the TGI in the test with KM12 colon, in the test with TK-10 renal, in the test with UACC-257 melanoma and in the test on UO-31 renal was over 100 µM in each case.

For the compound `Cc1cc(C)n(CN(CCCCO)Cn2nc(C)cc2C)n1`, the TGI in the test on A498 renal was over 100 µM; in the test with BT-549 breast it was 71.2 µM; with DU-145 prostate, 53.6 µM; in the test on EKVX NSCLC it was 76.3 µM; in the test with HOP-62 NSCLC it was 47.6 µM; with HS 578T breast, over 100 µM. Further, the TGI in the test on KM12 colon was 60.6 µM; with TK-10 renal, over 100 µM; with UACC-257 melanoma, 80 µM; in the test on UO-31 renal, 69.1 µM.
